21 molecules from PubChem BioAssay AID330 (DTP/NCI, 2004) can be followed below.

The test system of the assay is P388 leukemia ip, CD2F1 mice, survival T/C. Nature of the assay: NCI In Vivo Anticancer Drug Screen. Data for tumor model P388 Leukemia (intraperitoneal) in CD2F1 (CDF1) mice. The following applies: endpoint: median survival time, higher = longer survival. An outline of the steps: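 Mice carrying the transplanted tumor received test compound or vehicle. Survival was recorded in each group, and the value is the treated-group measurement divided by that of the vehicle-treated control group.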

[1] abbreviates: dose: 25.0 mg/kg/injection, schedule: Q04DX003 (ip), vehicle: saline with Tween-80.
The mark [2] stands for this setting: dose: 50.0 mg/kg/injection, schedule: Q04DX003 (ip), vehicle: saline with Tween-80.
The mark [3] stands for this setting: dose: 100.0 mg/kg/injection, schedule: Q04DX003 (ip), vehicle: saline.
Where [4] appears, read: dose: 200.0 mg/kg/injection, schedule: Q04DX003 (ip), vehicle: saline.
[5] abbreviates: dose: 400.0 mg/kg/injection, schedule: Q04DX003 (ip), vehicle: saline.
The mark [6] stands for this setting: dose: 100.0 mg/kg/injection, schedule: Q01DX009 (ip), vehicle: saline with Tween-80.
Setting [7] is: dose: 200.0 mg/kg/injection, schedule: Q01DX009 (ip), vehicle: saline with Tween-80.
[8] abbreviates: dose: 50.0 mg/kg/injection, schedule: Q01DX005 (ip), vehicle: saline with Tween-80.
The mark [9] stands for this setting: dose: 100.0 mg/kg/injection, schedule: Q01DX005 (ip), vehicle: saline with Tween-80.
Where [10] appears, read: dose: 200.0 mg/kg/injection, schedule: Q01DX005 (ip), vehicle: saline with Tween-80.
Where [11] appears, read: dose: 12.5 mg/kg/injection, schedule: Q01DX009 (ip), vehicle: Klucel (hydroxypropylcellulose) (HPC).
[12] abbreviates: dose: 25.0 mg/kg/injection, schedule: Q01DX009 (ip), vehicle: Klucel (hydroxypropylcellulose) (HPC).
The mark [13] stands for this setting: dose: 50.0 mg/kg/injection, schedule: Q01DX009 (ip), vehicle: saline with Tween-80.
Where [14] appears, read: dose: 50.0 mg/kg/injection, schedule: Q01DX009 (ip), vehicle: saline.
The mark [15] stands for this setting: dose: 100.0 mg/kg/injection, schedule: Q01DX009 (ip), vehicle: saline.
Where [16] appears, read: dose: 200.0 mg/kg/injection, schedule: Q01DX009 (ip), vehicle: saline.

“And” between values parts separate entries of the source, which are not always exact repeats. Identical values can stand only once. Toxic doses and inconclusive results are not listed.

In the case of `CCCc1onc(-c2noc(CCC)c2CC)c1CC`, the T/C is, setting by setting: (dose: 60.0 mg/kg/injection, schedule: Q01DX005 (ip), vehicle: saline) 100 % of control; (dose: 120.0 mg/kg/injection, schedule: Q01DX005 (ip), vehicle: saline) 95 % of control; (dose: 240.0 mg/kg/injection, schedule: Q01DX005 (ip), vehicle: saline) 103 % of control.

In the case of `CCCCCCCCCCC1(O)OC(=O)C(C)=C1C` (centres undefined), the T/C is 100 % of control (dose: 12.5 mg/kg/injection, schedule: Q04DX003 (ip), vehicle: saline with Tween-80); 101 % of control under setting [1]; 100 % of control under setting [2].

On to `NC(=O)NNC(=O)NNC(N)=O`, for which the T/C was 98 % of control under setting [3], 96 % of control under setting [4] and 106 % of control under setting [5].

Consider `C=CC1(C)CC(O)C2C(C)C(=O)OC2C1C(=C)C` (centres undefined), for which the T/C was 100 % of control under setting [6]; 100 % of control under setting [7]; 100 % of control (dose: 400.0 mg/kg/injection, schedule: Q01DX009 (ip), vehicle: saline with Tween-80).

Take `CN(N=O)C(=O)Nc1c[nH]c(=O)[nH]c1=O`: the T/C reads like this: (dose: 25.0 mg/kg/injection, schedule: Q01DX009 (ip), vehicle: saline sonified) 186 % of control; under setting [1], 190 % of control; (dose: 50.0 mg/kg/injection, schedule: Q01DX009 (ip), vehicle: saline sonified) 200 % of control; under setting [2], 195 % of control; (dose: 66.0 mg/kg/injection, schedule: Q04DX003 (ip), vehicle: saline with Tween-80) 163 % of control; (dose: 100.0 mg/kg/injection, schedule: Q04DX003 (ip), vehicle: saline with Tween-80) 186 % of control and 190 % of control. Further, the T/C (dose: 150.0 mg/kg/injection, schedule: Q04DX003 (ip), vehicle: saline with Tween-80) was 90 % of control.

For the molecule `O=S(=O)(Nc1ccnn1-c1ccccc1)c1ccc(NC(=S)Nc2ccccc2)cc1`, the T/C runs as follows: under setting [8], 96 % of control; under setting [9], 93 % of control; under setting [10], 91 % of control.

With `Cc1c(C(N)=O)c(-c2ccccc2)c(-c2ccccc2)n1Nc1ccccc1`, the T/C (dose: 60.0 mg/kg/injection, schedule: Q01DX005 (ip), vehicle: Klucel (hydroxypropylcellulose) (HPC)) is 95 % of control; the T/C (dose: 120.0 mg/kg/injection, schedule: Q01DX005 (ip), vehicle: Klucel (hydroxypropylcellulose) (HPC)) was 96 % of control; the T/C (dose: 240.0 mg/kg/injection, schedule: Q01DX005 (ip), vehicle: Klucel (hydroxypropylcellulose) (HPC)) is 92 % of control.

Turning to `COc1ccc2c(c1)-c1nn(CCCN(C)C)c3ccc([N+](=O)[O-])c(c13)N2`, the T/C by setting is: (dose: 4.5 mg/kg/injection, schedule: Q01DX005 (ip), vehicle: water) 169 % of control; (dose: 6.25 mg/kg/injection, schedule: Q01DX005 (ip), vehicle: water) 189 % of control; (dose: 7.5 mg/kg/injection, schedule: Q01DX005 (ip), vehicle: water) 181 % of control; (dose: 12.5 mg/kg/injection, schedule: Q01DX005 (ip), vehicle: water) 213 % of control and 216 % of control and 227 % of control; (dose: 21.0 mg/kg/injection, schedule: Q01DX005 (ip), vehicle: water) 253 % of control; (dose: 25.0 mg/kg/injection, schedule: Q01DX005 (ip), vehicle: water) 261 % of control. For the same molecule, the T/C (dose: 35.0 mg/kg/injection, schedule: Q01DX005 (ip), vehicle: water) was 290 % of control.

For `Cn1/c(=N\NC(=O)c2ccncc2)sc2ccccc21`, the T/C is 110 % of control (dose: 6.25 mg/kg/injection, schedule: Q01DX009 (ip), vehicle: Klucel (hydroxypropylcellulose) (HPC)); 107 % of control under setting [11]; 115 % of control under setting [12].

As for `CCCCCCCCCCCCCCCCCC(=O)N[C@@H](Cc1ccc(N(CCCl)CCCl)cc1)C(=O)NCCCCCC`, the T/C by setting is: (dose: 2.12 mg/kg/injection, schedule: Q01DX009 (ip), vehicle: saline) 109 % of control; (dose: 2.12 mg/kg/injection, schedule: Q03HX008 (ip), vehicle: saline) 90 % of control; (dose: 4.24 mg/kg/injection, schedule: Q01DX009 (ip), vehicle: saline) 113 % of control; (dose: 4.24 mg/kg/injection, schedule: Q03HX008 (ip), vehicle: saline) 100 % of control; (dose: 8.48 mg/kg/injection, schedule: Q03HX008 (ip), vehicle: saline) 100 % of control; (dose: 16.95 mg/kg/injection, schedule: Q03HX008 (ip), vehicle: saline) 100 % of control. Further, the T/C is 90 % of control (dose: 33.9 mg/kg/injection, schedule: Q03HX008 (ip), vehicle: saline) and 90 % of control (dose: 67.8 mg/kg/injection, schedule: Q03HX008 (ip), vehicle: saline).

Turning to `O=C(NNC(=O)c1ccccc1O)Nc1ccc(Cl)cc1C(F)(F)F`, the T/C under setting [13] was 103 % of control, the T/C under setting [6] is 106 % of control and the T/C under setting [7] was 100 % of control.

For the molecule `CC1=CCC(C)C(C)(C)C1CC/C(C)=C/CCC1(C)C(CCCO)/C(=C(\C)C=O)CCC1(C)O` (centres undefined), the T/C (dose: 4.5 mg/kg/injection, schedule: Q01DX005 (ip), vehicle: Klucel (hydroxypropylcellulose) (HPC)) is 152 % of control.

On to `COc1cc2c(Cl)ncnc2c(OC)c1OC`, for which the T/C runs as follows: under setting [8], 106 % of control; under setting [9], 106 % of control; under setting [10], 109 % of control.

As to `COC(=O)C(C)n1c(C)csc1=S` (centres undefined), the T/C runs as follows: under setting [8], 103 % of control; under setting [9], 98 % of control.

`Brc1cc2cccnc2c2ccccc12`: the T/C is, setting by setting: (dose: 100.0 mg/kg/injection, schedule: Q01DX001 (ip), vehicle: Klucel (hydroxypropylcellulose) (HPC)) 98 % of control; (dose: 200.0 mg/kg/injection, schedule: Q01DX001 (ip), vehicle: Klucel (hydroxypropylcellulose) (HPC)) 94 % of control; (dose: 400.0 mg/kg/injection, schedule: Q01DX001 (ip), vehicle: Klucel (hydroxypropylcellulose) (HPC)) 97 % of control.

On to `CCOc1ccc2nc([NH-])sc2c1.CCOc1ccc2nc([NH-])sc2c1.CCOc1ccc2nc([NH-])sc2c1.CCOc1ccc2nc([NH-])sc2c1.[Cl][Rh][Cl]`, for which the T/C by setting is: (dose: 12.5 mg/kg/injection, schedule: Q01DX001 (ip), vehicle: DMSO) 102 % of control; (dose: 25.0 mg/kg/injection, schedule: Q01DX001 (ip), vehicle: DMSO) 102 % of control and 105 % of control; (dose: 50.0 mg/kg/injection, schedule: Q01DX001 (ip), vehicle: DMSO) 107 % of control and 94 % of control; (dose: 100.0 mg/kg/injection, schedule: Q01DX001 (ip), vehicle: DMSO) 113 % of control and 124 % of control and 91 % of control.

With `CC1=C2CC3CCC(C)C2(CC1)C3(C)C` (centres undefined), the T/C is 98 % of control under setting [14]; 95 % of control under setting [15]; 95 % of control under setting [3]; 95 % of control under setting [16]; 95 % of control under setting [4]; 100 % of control under setting [5].

For `COc1cccc2c1C(=O)OC2=O`, the T/C runs as follows: under setting [11], 105 % of control; under setting [12], 105 % of control; (dose: 50.0 mg/kg/injection, schedule: Q01DX009 (ip), vehicle: Klucel (hydroxypropylcellulose) (HPC)) 112 % of control; (dose: 100.0 mg/kg/injection, schedule: Q01DX009 (ip), vehicle: Klucel (hydroxypropylcellulose) (HPC)) 97 % of control; (dose: 200.0 mg/kg/injection, schedule: Q01DX009 (ip), vehicle: Klucel (hydroxypropylcellulose) (HPC)) 96 % of control.

Regarding `COC(=O)C1C(=O)C2CCC1C(=O)C2C(=O)OC` (centres undefined), the T/C is 93 % of control under setting [13], 93 % of control under setting [6] and 98 % of control under setting [7].

Consider `c1ccc2c(c1)CCC1=C2S/C(=C2/SC3=C(S2)c2ccccc2CC3)S1`, for which the T/C (dose: 7.5 mg/kg/injection, schedule: Q01DX005 (ip), vehicle: saline with Tween-80) was 94 % of control; the T/C (dose: 15.0 mg/kg/injection, schedule: Q01DX005 (ip), vehicle: saline with Tween-80) is 100 % of control; the T/C (dose: 30.0 mg/kg/injection, schedule: Q01DX005 (ip), vehicle: saline with Tween-80) is 100 % of control.

Turning to `CC(O)CC(c1ccccc1)C(C(=O)O)c1ccccc1` (centres undefined), the T/C runs as follows: under setting [14], 108 % of control; under setting [15], 101 % of control; under setting [16], 95 % of control.
